Measured values reported in PubChem BioAssay (NCI).
“And” between values parts separate entries of the source, which are not always exact repeats. Equal values may be shown once.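 All cell lines were grown in 96-well plates and treated with compound for 48 hours. GI50: concentration for 50% inhibition of growth. TGI is the concentration that stops growth completely.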

Legend:
Test in all cases: inhibition of tumour cell growth, NCI panel, 48 h
U251 CNS = test system: U251 CNS
UACC-62 melanoma = test system: UACC-62 melanoma
T-47D breast = test system: T-47D breast
HOP-92 NSCLC = test system: HOP-92 NSCLC
CAKI-1 renal = test system: CAKI-1 renal
MALME-3M melanoma = test system: MALME-3M melanoma
UACC-257 melanoma = test system: UACC-257 melanoma
HS 578T breast = test system: HS 578T breast
A549 NSCLC = test system: A549 NSCLC
SF-539 CNS = test system: SF-539 CNS
MDA-N = test system: MDA-N
SNB-19 CNS = test system: SNB-19 CNS
HL-60(TB) leukemia = test system: HL-60(TB) leukemia
UO-31 renal = test system: UO-31 renal
PC-3 prostate = test system: PC-3 prostate
SK-OV-3 ovarian = test system: SK-OV-3 ovarian
A498 renal = test system: A498 renal
SF-295 CNS = test system: SF-295 CNS
SK-MEL-2 melanoma = test system: SK-MEL-2 melanoma

SMILES	TGI (U251 CNS) [µM]	TGI (UACC-62 melanoma)	TGI (T-47D breast) [µM]	TGI (HOP-92 NSCLC)	TGI (CAKI-1 renal) [µM]	TGI (MALME-3M melanoma)	TGI (UACC-257 melanoma) [µM]	TGI (HS 578T breast) [µM]	TGI (A549 NSCLC) [µM]	TGI (SF-539 CNS)	TGI (MDA-N) [µM]	TGI (SNB-19 CNS) [µM]	TGI (HL-60(TB) leukemia)	TGI (UO-31 renal)	TGI (PC-3 prostate) [µM]	TGI (SK-OV-3 ovarian) [µM]	TGI (A498 renal) [µM]	TGI (SF-295 CNS)	TGI (SK-MEL-2 melanoma) [µM]	GI50 (HL-60(TB) leukemia)
OC(c1cc(-c2ccc(Cl)cc2)nc2ccccc12)C1CCCCN1 (centres undefined)	3.25	3.43 µM	2.96	12.2 µM	6.44	2.94 µM	9.71	4.34	3.53	3.52 µM	3.7	37.6	4.61 µM	2.45 µM	3.79	5.5	3.54	3.67 µM		
N=[N+]=CC(=O)CCC(NC(=O)C(CCC(=O)C=[N+]=N)NC(=O)CCC(N)C(=O)O)C(=O)O (centres undefined)	> 100	> 100 µM		> 100 µM	> 100	> 100 µM	> 100		> 100	> 100 µM		> 100	> 100 µM	> 100 µM		> 100	> 100	> 100 µM	> 100	
Nc1c(C(=O)Nc2ccc(C3=NCCN3)cc2)cccc1C(=O)Nc1ccc(C2=NCCN2)cc1	> 100	> 100 µM		> 100 µM	> 100	> 100 µM	> 100		> 100	> 100 µM		> 100	> 100 µM	> 100 µM		> 100	> 100	> 100 µM	> 100	
C[n+]1ccc(Nc2ccc(NC(=O)c3ccc(Nc4cc[n+](C)c5ccc([N+](=O)[O-])cc45)cc3[N+](=O)[O-])cc2)cc1	> 84.6	> 90.4 µM and 63.6 µM		81.7 µM and > 77.1 µM	> 100	61.2 µM and 53.9 µM	> 100		> 100	68.5 µM and > 66.7 µM		> 100	> 47.7 µM and 69.9 µM	98.9 µM and > 79.4 µM		> 100	> 94.1	63.6 µM and 60 µM	> 100	4.7 µM and 10.3 µM
CC(C)(C)C(=O)CP(=O)(O)O	> 100	> 100 µM	> 100	> 100 µM	> 100	> 100 µM	> 100	> 100	> 100	> 100 µM	> 100	> 100	> 100 µM		> 100	> 100	> 100	> 100 µM	> 100	
Cc1c(Cl)c(S(N)(=O)=O)cc2c1NC=NS2(=O)=O	> 100	> 100 µM	> 100	> 100 µM	> 100	> 100 µM	> 100	> 100	> 100		> 100	> 100		> 100 µM	> 100	> 100	> 100	> 100 µM		
Oc1ccc(Cc2nccc3cc(O)c(O)cc23)cc1O	> 100	> 100 µM	> 100	> 100 µM	> 100	> 100 µM	87.6	> 100	> 100	> 100 µM	> 100	> 100	> 100 µM	> 100 µM	> 100	> 100	> 100	> 100 µM	> 100	
O=C(O)NCC1CCCCC1 (tested in a mixture with another compound)	20.3	34.2 µM		24.4 µM	> 100	7.15 µM	63.2		> 100		47.7	> 100	38.5 µM	> 100 µM	46.4		34.1	50.3 µM	30.9	
C1CSC(=[N+]2CC[N+](=C3SCCS3)CC2)S1	> 100	> 100 µM		> 100 µM	> 100	> 100 µM	> 100		> 100	> 100 µM		> 100	> 100 µM	> 100 µM		> 100	> 100	> 100 µM	> 100	
C/C(=N\NC(=S)N1CCN(C)CC1)c1nc2ncccc2[nH]1	> 100	> 100 µM	> 100	> 100 µM	> 100	> 100 µM	> 100	> 100	> 100	> 100 µM		> 100	> 100 µM	> 100 µM	> 100	> 100	> 100	> 100 µM		
